Test results as given in the NIST ThermoML archive (doi:10.1016/j.jct.2015.11.027).

Conditions: Liquid, Vibrating wire viscometry

Cc1ccc(C)cc1 [1,4-dimethylbenzene]
Conditions	viscosity [mPa·s]
293.03 K, 15000 kPa	0.7277
293.03 K, 20000 kPa	0.7569
293.03 K, 25000 kPa	0.7883
293.03 K, 30000 kPa	0.8186
293.04 K, 100 kPa	0.6444
293.04 K, 1000 kPa	0.6494
293.04 K, 5000 kPa	0.672
293.04 K, 10000 kPa	0.6997
302.86 K, 100 kPa	0.5762
302.86 K, 1000 kPa	0.5804
302.87 K, 5000 kPa	0.5995
302.87 K, 10000 kPa	0.6244
302.88 K, 15000 kPa	0.6499
302.88 K, 20000 kPa	0.6747
302.88 K, 25000 kPa	0.7023
302.89 K, 30000 kPa	0.7274
312.76 K, 100 kPa	0.515
312.76 K, 1000 kPa	0.5186
312.76 K, 15000 kPa	0.5806
312.76 K, 20000 kPa	0.6027
312.76 K, 25000 kPa	0.6263
312.76 K, 30000 kPa	0.6494
312.77 K, 5000 kPa	0.5356
312.77 K, 10000 kPa	0.5575
322.62 K, 100 kPa	0.4653
322.63 K, 1000 kPa	0.4689
322.64 K, 5000 kPa	0.4833
322.64 K, 10000 kPa	0.5038
322.64 K, 15000 kPa	0.524
322.64 K, 20000 kPa	0.5442
322.64 K, 25000 kPa	0.5653
322.65 K, 30000 kPa	0.5861
332.57 K, 30000 kPa	0.5304
332.58 K, 100 kPa	0.4206
332.58 K, 1000 kPa	0.4237
332.58 K, 5000 kPa	0.4383
332.58 K, 10000 kPa	0.4564
332.58 K, 15000 kPa	0.4745
332.58 K, 20000 kPa	0.493
332.58 K, 25000 kPa	0.5109
342.27 K, 100 kPa	0.3815
342.27 K, 1000 kPa	0.3842
342.28 K, 5000 kPa	0.3977
342.28 K, 10000 kPa	0.4144
342.28 K, 20000 kPa	0.4482
342.29 K, 15000 kPa	0.4314
342.29 K, 25000 kPa	0.4649
342.29 K, 30000 kPa	0.4833
352.2 K, 5000 kPa	0.3634
352.2 K, 10000 kPa	0.3791
352.2 K, 15000 kPa	0.3945
352.2 K, 20000 kPa	0.4111
352.2 K, 25000 kPa	0.4263
352.2 K, 30000 kPa	0.4423
352.21 K, 100 kPa	0.3483
352.21 K, 1000 kPa	0.3507
362.73 K, 100 kPa	0.3194
362.74 K, 1000 kPa	0.3217
362.75 K, 5000 kPa	0.3331
362.76 K, 10000 kPa	0.3467
362.76 K, 15000 kPa	0.3616
362.77 K, 20000 kPa	0.3756
362.81 K, 25000 kPa	0.3915
362.82 K, 30000 kPa	0.405
372.69 K, 20000 kPa	0.348
372.69 K, 25000 kPa	0.3614
372.69 K, 30000 kPa	0.3752
372.7 K, 10000 kPa	0.3203
372.7 K, 15000 kPa	0.3341
372.71 K, 100 kPa	0.2936
372.71 K, 1000 kPa	0.296
372.71 K, 5000 kPa	0.3061

CCc1ccccc1 [ethylbenzene]
Conditions	viscosity [mPa·s]
253.21 K, 5000 kPa	1.259
253.22 K, 1000 kPa	1.211
253.22 K, 10000 kPa	1.311
253.22 K, 35000 kPa	1.593
253.23 K, 100 kPa	1.2
253.23 K, 20000 kPa	1.423
253.23 K, 25000 kPa	1.479
253.24 K, 15000 kPa	1.368
253.24 K, 30000 kPa	1.535
263.2 K, 10000 kPa	1.11
263.2 K, 15000 kPa	1.16
263.21 K, 5000 kPa	1.063
263.21 K, 20000 kPa	1.207
263.21 K, 25000 kPa	1.257
263.21 K, 35000 kPa	1.35
263.22 K, 100 kPa	1.021
263.22 K, 1000 kPa	1.028
263.22 K, 30000 kPa	1.304
273.15 K, 5000 kPa	0.9249
273.15 K, 20000 kPa	1.042
273.15 K, 30000 kPa	1.123
273.15 K, 35000 kPa	1.163
273.16 K, 25000 kPa	1.082
273.17 K, 1000 kPa	0.8919
273.18 K, 10000 kPa	0.9635
273.19 K, 15000 kPa	1.003
273.21 K, 100 kPa	0.8832
283.13 K, 1000 kPa	0.7784
283.14 K, 10000 kPa	0.8372
283.15 K, 20000 kPa	0.9017
283.16 K, 100 kPa	0.7737
283.16 K, 5000 kPa	0.8028
283.16 K, 30000 kPa	0.9641
283.16 K, 35000 kPa	0.9964
283.17 K, 15000 kPa	0.8678
283.17 K, 25000 kPa	0.9314
293.18 K, 5000 kPa	0.7056
293.2 K, 1000 kPa	0.6832
293.22 K, 25000 kPa	0.8173
293.23 K, 15000 kPa	0.7607
293.24 K, 10000 kPa	0.7327
293.24 K, 20000 kPa	0.7871
293.24 K, 30000 kPa	0.8447
293.26 K, 100 kPa	0.6786
293.26 K, 35000 kPa	0.8724
303.15 K, 100 kPa	0.6033
303.17 K, 1000 kPa	0.6074
303.17 K, 20000 kPa	0.6989
303.18 K, 5000 kPa	0.6268
303.18 K, 25000 kPa	0.7235
303.18 K, 35000 kPa	0.7739
303.19 K, 15000 kPa	0.6744
303.19 K, 30000 kPa	0.7502
303.2 K, 10000 kPa	0.6499
313.08 K, 30000 kPa	0.6722
313.09 K, 20000 kPa	0.6261
313.1 K, 10000 kPa	0.5812
313.1 K, 25000 kPa	0.649
313.1 K, 35000 kPa	0.694
313.11 K, 5000 kPa	0.5596
313.12 K, 100 kPa	0.5386
313.12 K, 1000 kPa	0.5427
313.12 K, 15000 kPa	0.6039
322.97 K, 100 kPa	0.4865
322.97 K, 20000 kPa	0.5648
322.98 K, 1000 kPa	0.4895
322.98 K, 5000 kPa	0.5042
322.98 K, 10000 kPa	0.5245
322.98 K, 15000 kPa	0.544
322.98 K, 25000 kPa	0.5856
322.98 K, 30000 kPa	0.606
322.98 K, 35000 kPa	0.6259
332.91 K, 100 kPa	0.4422
332.91 K, 5000 kPa	0.4595
332.92 K, 1000 kPa	0.4448
332.92 K, 10000 kPa	0.478
332.92 K, 15000 kPa	0.4961
332.92 K, 20000 kPa	0.5149
332.92 K, 25000 kPa	0.5331
332.92 K, 30000 kPa	0.5516
332.92 K, 35000 kPa	0.5706
342.8 K, 1000 kPa	0.4049
342.8 K, 10000 kPa	0.4356
342.8 K, 15000 kPa	0.4524
342.8 K, 20000 kPa	0.4691
342.8 K, 25000 kPa	0.4869
342.8 K, 30000 kPa	0.5045
342.8 K, 35000 kPa	0.5223
342.81 K, 100 kPa	0.4022
342.81 K, 5000 kPa	0.4186
352.72 K, 5000 kPa	0.3851
352.72 K, 20000 kPa	0.4335
352.72 K, 35000 kPa	0.4807
352.73 K, 100 kPa	0.3693
352.73 K, 1000 kPa	0.372
352.73 K, 10000 kPa	0.4003
352.73 K, 15000 kPa	0.4164
352.73 K, 25000 kPa	0.4495
352.73 K, 30000 kPa	0.4654
362.66 K, 100 kPa	0.339
362.66 K, 1000 kPa	0.3418
362.66 K, 5000 kPa	0.3538
362.66 K, 15000 kPa	0.3838
362.66 K, 20000 kPa	0.3986
362.66 K, 25000 kPa	0.4137
362.66 K, 30000 kPa	0.4289
362.67 K, 10000 kPa	0.3685
362.67 K, 35000 kPa	0.4429
372.59 K, 5000 kPa	0.3272
372.59 K, 10000 kPa	0.341
372.59 K, 15000 kPa	0.3541
372.59 K, 20000 kPa	0.3688
372.59 K, 25000 kPa	0.3822
372.59 K, 30000 kPa	0.3967
372.59 K, 35000 kPa	0.4108
372.6 K, 1000 kPa	0.3155
372.61 K, 100 kPa	0.3127
